Test results as given in ChEMBL document CHEMBL1135555 (Bioorg Med Chem Lett, 2002).
pIC50, pKi: −log10 of the molar value.

Key:
[1] = target: cGMP-specific 3',5'-cyclic phosphodiesterase (Rattus norvegicus, UniProt O54735); assay: Inhibition of Phosphodiesterase 5 from rat diaphragm
[2] = Inhibition of Phosphodiesterase 3 from rat diaphragm

Row | pIC50 [1] | pIC50 [2] | pKi [1] | Compound
1 | 4.97 | 4.89 | – | C=C(C)C(CCC(C)(C)O)Cc1c(O)cc(OC)c2c1O[C@H](c1ccc(O)cc1O)[C@H](O)C2=O (stereo partly specified)
2 | – | 4.87 | – | C=C(C)C(CCC(C)(C)O)Cc1c(O)cc(OC)c2c1O[C@H](c1ccc(O)cc1O)[C@@H](O)C2=O (stereo partly specified)
3 | 6.19 | 5.90 | – | C=C(C)[C@H](CC=C(C)C)Cc1c(O)cc(OC)c(C(=O)/C=C/c2ccc(O)cc2O)c1O [KURAIDIN]
4 | 5.21 | 5.53 | – | C=C(C)[C@H](CCC(C)(C)O)Cc1c(O)cc(OC)c2c1O[C@H](c1ccc(O)cc1O)CC2=O [KURARINOL]
5 | – | 6.13 | – | Cc1[nH]c(=O)c(C#N)cc1-c1ccncc1 [MILRINONE]
6 | 7.89 | 6.39 | 8.30 | COc1cc(O)c(CC=C(C)C)c2oc(-c3ccc(O)cc3)c(O)c(=O)c12 [SOPHOFLAVESCENOL]
